Reference: patent publication US6433009B1, “Sulfonyl urea derivatives and their use in the control of interleukin-1 activity” (Pfizer Inc, priority 1997, dated 2002)

| melting point | SMILES |
| --- | --- |
| 239 °C (dec.) | O=C(Nc1c2c(cc3c1CCC3)CCC2)NS(=O)(=O)c1ccc2[nH]cnc2c1 [Example 127, 1-(1H-Benzoimidazole-5-sulfonyl)-3-(1,2,3,5,6,7-hexahydro-s-indacen-4-yl)-urea] |
| 151.6 to 153.5 °C | CC(=O)c1cccc(S(=O)(=O)NC(=O)Nc2c(C(C)C)cccc2C(C)C)c1 [Example 56, 1-(3-Acetyl-benzenesulfonyl)-3-(2,6-diisopropyl-phenyl)-urea] |
